A short description of series [1]: Solubility at physiological pH. The series is classed as physicochemical.
For series [2], the system named is PANC1 (pancreatic carcinoma) cells, p53R273H. The format is cell-based. Conditions: 48 h. On the procedure:
(§1) Cells were cultured in 96 wells plates with 2500-4000 cells/well. Serial dilutions of different peptides were added and the plates incubated for additional 48 h at 37° C. Then medium was removed and cell viability was determined by staining the cells with crystal violet (0.05%) in methanol/PBS (1:5, v/v), for 10 min, followed by 3 washes with PBS. 10% acetic acid was added to each well for 10 min. OD was determined at 595 nm.
(§2) The IC50 tables presented in FIGS. 17-20 are from several representative experiments performed on cell lines expressing several p53 hotspot mutations, as well as control non-transformed cells: […]

Series [3] has as its system WI38 (non-transformed fibroblasts) cells, wtp53. The series is classed as cell-based. The settings on record: 48 h. On the procedure:
as §1, §2

In series [4] the test system is MIA PaCa-2 (pancreatic carcinoma) cells, p53R248W. The series is classed as cell-based. Conditions: 48 h. On the procedure: as §1, §2
Series [5] deals with panel of cell lines expressing mutp53. The format is cell-based. On the procedure:
as §1
(§3) The IC50 tables presented in FIGS. 17-20 are from several representative experiments performed on cell lines expressing several p53 hotspot mutations, as well as control non-transformed cells:
Proline residue position—Based on alanine scanning and molecular dynamics analyses, it is believed that the proline residue at the 6th position from the N-terminal is critical for the peptide's 3D structure and provides some rigidity required for peptide binding and activity. Therefore, it was hypothesized that a change in orientation or tetrahedral angle might increase the affinity of the peptide for p53. Six new peptides were synthesized replacing this proline residue with proline analogs (pCAPs 708-712, and pCAP-716, SEQ ID NOS: 6-10 and 14, respectively). This set of peptides was tested for activity on a panel of cell lines expressing mutp53, and compared it to pCAP-674 (SEQ ID NO: 27) and to the scrambled sequence peptides pCAP-721 (SEQ ID NO: 19) and pCAP-722 (SEQ ID NO: 20).

Series [6] relates to RXF-393 renal cell carcinoma (RCC) cell line, endogenously expressing p53R175H. Kind of series: RXF-393 luciferase xenograft model, tumor growth by IVIS. The format is in vivo, athymic Nude-Foxn1nu mice. The settings on record: for tumor growth, average IVIS signal (in words): subcutaneous injections 20 mg/Kg, 2 days a week. From the text:
To investigate the efficacy of the lead peptides in vivo, a representative cancer cell line-based xenograft model was employed. The selection of the in vivo model was based on the peptide/cell line combination that yielded the strongest effects in culture: human renal carcinoma RXF-393 cells. The peptide analog pCAP-724 (SEQ ID NO: 22), administered by subcutaneous injections and sustained subcutaneous release, was compared to the control scrambled peptide pCAP-722 (SEQ ID NO: 20). Tumor growth was monitored by luciferase activity, measured in an IVIS200® Spectrum system that combines 2D optical and 3D optical tomography in one platform. The system uses leading optical technology for preclinical imaging research and development, ideal for non-invasive longitudinal monitoring of disease progression in living animals
The RXF-393 renal cell carcinoma (RCC) cell line, endogenously expressing p53R175H, and stably expressing Luciferase was utilized. • 1. 0.75×10^6 cells in 50% HBSS 50% Cultrex (1000) were injected subcutaneously, into both hips of athymic Nude-Foxn1nu mice (6 weeks old). • 2. Tumor growth over time was measured by live imaging, using the […] system. Exposure time was calibrated to 20 sec and peak luminescence values were taken for each tumor. • 3. 21 and 24 days after injection of cells, when tumors reached visible size (50-100 mm^3) and an average IVIS signal of 10^7 (100-fold over threshold), the mice were randomly divided into several groups (5 or 6 mice per each group), according to the mode of administration and peptides: • Subcutaneous injections, performed 2 days a week for 3-4 weeks (20 mg/Kg). Two injections will be given for each day of treatment 16 h interval to allow effective level of peptide for 24 h. […]
• 4. Tumor growth over time was measured by live imaging, twice a week. The experiment was conducted until tumors reached the maximal allowed size of 1 cm^3, at which time mice were sacrificed, tumors extracted, measured, photographed, and weighed.

Series [7] concerns PC9 (lung carcinoma) cells, p53R248Q. The format is cell-based. The settings on record: 48 h. On the procedure: as §1, §2
Series [8] relates to RXF-393 (renal carcinoma) cells, p53R175H. The series is classed as cell-based, human. The settings on record: 48 h. On the procedure:
as §1, §3
Fatty acid position. Lead peptides were modified with N-terminal myristic acid to enable the penetration of peptides across the cell membrane. Although myristic acid is usually the default choice for cell permeability, additional options were explored of longer fatty acids and to examine the effect on peptide efficacy in terms of cancer cell killing. A standard crystal violet viability test was performed on human renal carcinoma RXF-393 cells, comparing the original pCAP-553, which has myristic acid (C14), with 4 derivative peptides modified with longer fatty acid chains: palmitic (C16), stearic (C18), […] (C20) and behenic (C22).

Series [9] in a line: Pharmacokinetic profile, LC-MS of peptide concentration in plasma. The format is in vivo, mice. On the procedure:
FIG. 21 depicts PK profile for pCAP-724 (SEQ ID NO:22). LC-MS analysis of peptide concentration in the plasma of injected mice. Each point represents an average reading from 3 mice. Shown are mean plasma concentrations (mpk) of the peptide, following administration either intravenously at 1 mg/kg (IV) or subcutaneously at 5 mg/kg (SC).
Each point represents the average from 3 mice. When administered subcutaneously into mice, pCAP-724 levels reach a maximal concentration after 2 h and a show a half-life (T1/2) of about 10 h. […] From the PK study, it is estimated that a continuous long-acting administration of 20 mg/kg/day of pCAP-724 (SEQ ID NO: 22) will yield a steady state concentration in the blood of about 7-10 μM.

The test system of series [10] is SW-480 (colon carcinoma) cells, p53R273H, P309S. The format is cell-based. Conditions: 48 h. On the procedure:
as §1, §2

Where a SMILES comes first, the peptide text is derived from it. Bridges are numbered along the chain shown (N, C = ends). [ ]: non-standard residue; d: D form. The star is where a group is joined. Stearoyl = CCCCCCCCCCCCCCCCCC(=O)*; Myristoyl = CCCCCCCCCCCCCC(=O)*; Dab = NCC[C@H](N)C(=O)O Bounds are passed on as bounds.

By IC50 is commonly meant the concentration that gives 50% inhibition. Take `CCCCCCCCCCCCCC(=O)N[C@@H](CCCNC(=N)N)C(=O)N[C@@H](CCCNC(=N)N)C(=O)N[C@@H](Cc1c[nH]cn1)C(=O)N[C@@H](CO)C(=O)N[C@@H](C(=O)N1CCC[C@H]1C(=O)N[C@@H](CCN)C(=O)N1CCC[C@H]1C(=O)N[C@@H](CC(=O)O)C(=O)O)C(C)C` [pCAP-553, myr-RRHSvP(L-Dab)PD] (Myristoyl-RRHS[dV]P[Dab]PD-OH; C-terminus assumed): the “solubility (in words)” value in series [1] is listed as “better solubility at physiological pH”. Moreover, the IC50 in [2] was 2100 nM; in series [3], over 40000 nM; in [4], 1200 nM. Further, the “activity in viability assays compared with other peptides (in words)” value in series [5] was “improved efficacy relatively to pCAP-250”.

`CCCCCCCCCCCCCCCCCC(=O)N[C@@H](CC(=O)O)C(=O)N1CCC[C@H]1C(=O)N[C@@H](Cc1c[nH]cn1)C(=O)N[C@@H](C(=O)N[C@@H](CO)C(=O)N1CCC[C@H]1C(=O)N[C@@H](CCCNC(=N)N)C(=O)N[C@@H](CCN)C(=O)N[C@@H](CCCNC(=N)N)C(N)=O)C(C)C` [pCAP-722, str-DPHvSPR(Dab)R-NH2, reference compound] (Stearoyl-DPH[dV]SPR[Dab]R-NH2): in [6], the “tumor growth, average IVIS signal (in words)” value is on record as “continued its exponential growth”. The IC50 in series [2], in [3], in series [7] and in [8] was over 40000 nM in each case.

Regarding `CCCCCCCCCCCCCCCCCC(=O)N[C@@H](CCCNC(=N)N)C(=O)N[C@@H](CCCNC(=N)N)C(=O)N[C@@H](Cc1c[nH]cn1)C(=O)N[C@@H](CO)C(=O)N[C@@H]1CCCCNC(=O)[C@H](CC(=O)O)NC(=O)[C@@H]2CCCN2C(=O)[C@H](CCN)NC(=O)[C@H]2CCCN2C1=O` [pCAP-724, str-RRHSkp(Dab)PD-Cyc] (Stearoyl-RRHS[dK][dP][Dab]PD; lactam 5-C), the “estimated steady state concentration in the blood” value in [9] (continuous long-acting administration of 20 mg/kg/day) was 7 to 10 µM. Moreover, in series [9] (mouse, in vivo, sc, 5 mg/kg, administered subcutaneously into mice, read-out: half-life (T1/2) (converted)), the half-life was about 10 h. The Tmax in [9] (mouse, plasma, sc, 5 mg/kg, administered subcutaneously into mice, read-out: time of maximal plasma concentration) was 2 h. Moreover, the “decrease in tumor signal (IVIS)” value in series [6] (Alzet mini pumps 20 mg/Kg/Day SC continuous, within 14 days) is given as 5 fold. Further, in series [6], the “tumor growth, average IVIS signal (in words)” value is reported as “slowed down tumor growth for the first 10 days”. Further, the IC50 is 1020 nM in [2]; 32000 nM in series [3]; 250 nM in [4]; 650 nM in series [10]; 100 to 1000 nM in series [5] (48 h). Also, the “activity in viability assays compared with other peptides (in words)” value in series [5] was “modest increase in activity compared with pCAP-713”.

Values taken from patent publication US20230127559A1, “PEPTIDE ANALOGS AND USE OF SAME IN TREATING DISEASES, DISORDERS OR CONDITIONS ASSOCIATED WITH MUTANT P53 PROTEIN” (YEDA RESEARCH AND DEVELOPMENT CO. LTD., priority 2020, published 2023).
